Reference: patent US9149547B2, “Process for production of heterodimers of glutamic acid” (Molecular Insight Pharmaceuticals, Inc., priority 2009, dated 2015)

Tests used:
[1] = Stability at room temperature, free I-123 content quantitated by HPLC; format: physicochemical
Experimental: Stability Results: Stability was evaluated for up to 2 days at room temperature by quantitation of free 1-123 content present by HPLC. The stability was determined at room temperature in an attempt to accelerate any product degradation to more rapidly assess the effectiveness of each radioprotectants in the formulation matrix.

[2] = Stability profile of final formulation at room temperature (FIG. 4); format: physicochemical; conditions: 6% sodium ascorbate/ascorbic acid with 2.3% sodium gentisate in sterile water for injection, compared to formulation of PBS (pH=9.0)
Experimental: In a 5 mL vial containing [^123I]NaI was added sterile water for injection (SWFI) (50 μL), 50% sulfuric acid in SWFI (50 μL), oxidant (100 μL) (which was prepared fresh via the incubation of acetic acid (0.2 mL) and 30% hydrogen peroxide (0.335 mL) followed by dilution to a final volume of 5 mL with SWFI), acetonitrile (0.5 mL), and the trimethylstannane precursor, Sn-MIP-1095 (compound 9) (100 μL of a 1 mg/mL solution in acetonitrile). The mixture was vortexed for 1 min and allowed to incubate at room temperature for an additional 10 minutes. The reaction was quenched with 200 μL of 0.1 M sodium thiosulfate. The product was then diluted in 18 mL of SWFI and loaded onto a C18 Sep Pak Plus column. The column was washed with 60 mL SWFI to remove unreacted radioiodine and inorganic and organic salts. The Sn-MIP-1095 precursor and ^123I-MIP-1095 ester are retained on the column. ^123I-MIP-1095 ester was eluted from the column using 4 mL of ethanol, while the Sn-MIP-1095 precursor was retained on the column. The resulting solution, containing the ^123I-MIP-1095 ester, was evaporated to dryness under a stream of nitrogen and the residue was dissolved in methylene chloride (0.5 mL) and TFA (2 mL) was added to remove the ester protecting groups. The deprotection solution was incubated at room temperature for 45 minutes. […]

| Structure (SMILES) | stability of formulation ([1]; 6% ascorbate/3% gentisate formulation, 250 mCi scale-up runs) | increase in free iodine ([1]; stored at room temperature, evaluated for up to 2 days, free I-123 by HPLC) | stability profile of final formulation [2] |
| --- | --- | --- | --- |
| O=C(O)CC[C@H](NC(=O)N[C@@H](CCCCNCc1ccc(I)cc1)C(=O)O)C(=O)O [^123I-MIP-1072, ^123I—(S)-2-(3-((S)-1-carboxy-5-(4-iodobenzylamino)pentyl)ureido)pentanedioic Acid] | good stability | 3-5 % per day | – |
| O=C(O)CC[C@H](NC(=O)N[C@@H](CCCCNC(=O)Nc1ccc(I)cc1)C(=O)O)C(=O)O [^123I-MIP-1095, ^123I—(S)-2-(3-((S)-1-Carboxy-5-(3-(4-iodophenyl)ureido)pentyl)ureido)pentanedioic Acid] | – | – | stable profile |
